Reference: the NIST ThermoML archive (doi:10.1021/acs.jced.8b00132)
Values joined by “and” are separate entries in the source; they are usually repeats but may differ in a detail not shown here. Equal values may be shown once. Numbers after ± are expanded uncertainties.

Settings: Gas

Q: For `O=C(C(F)(F)C(F)(F)F)C(F)(C(F)(F)F)C(F)(F)F` [dodecafluoro-2-methylpentan-3-one], which thermal conductivity (453.64 K, 8480 kPa, transient hot wire) is on record?
A: 0.04343 ± 0.001 W/m/K

Q: And the thermal conductivity (453.64 K, 31251 kPa, transient hot wire)?
A: 0.05647 ± 0.0014 W/m/K

Q: What about the thermal conductivity (453.65 K, 526 kPa, hot wire) of the same compound?
A: 0.02432 ± 0.0011 W/m/K

Q: What about the thermal conductivity (453.66 K, 8479 kPa, transient hot wire) of the same compound?
A: 0.04348 ± 0.001 W/m/K

Q: And the thermal conductivity (453.66 K, 47049 kPa, transient hot wire)?
A: 0.06259 ± 0.0016 W/m/K

Q: What about the thermal conductivity (453.67 K, 1718 kPa, transient hot wire) of the same compound?
A: 0.02603 ± 0.0016 W/m/K

Q: What about the thermal conductivity (453.67 K, 47042 kPa, transient hot wire) of the same compound?
A: 0.06272 ± 0.0016 W/m/K

Q: And the thermal conductivity (453.68 K, 1718 kPa, transient hot wire)?
A: 0.02589 ± 0.0016 W/m/K

Q: And the thermal conductivity (453.68 K, 13120 kPa, transient hot wire)?
A: 0.04693 ± 0.0011 W/m/K

Q: And the thermal conductivity (453.68 K, 13121 kPa, transient hot wire)?
A: 0.04701 ± 0.0011 W/m/K

Q: What about the thermal conductivity (453.69 K, 5641 kPa, transient hot wire) of the same compound?
A: 0.04062 ± 0.00096 W/m/K

Q: And the thermal conductivity (453.7 K, 353 kPa, hot wire)?
A: 0.02345 ± 0.0011 W/m/K

Q: And the thermal conductivity (453.7 K, 5640 kPa, transient hot wire)?
A: 0.04066 ± 0.00096 W/m/K

Q: What about the thermal conductivity (453.72 K, 350 kPa, hot wire) of the same compound?
A: 0.02302 ± 0.0011 W/m/K

Q: And the thermal conductivity (453.73 K, 171 kPa, hot wire)?
A: 0.02261 ± 0.0011 W/m/K

Q: What about the thermal conductivity (453.73 K, 174 kPa, hot wire) of the same compound?
A: 0.0228 ± 0.0011 W/m/K

Q: And the thermal conductivity (453.73 K, 4189 kPa, transient hot wire)?
A: 0.03831 ± 0.00091 W/m/K

Q: And the thermal conductivity (453.73 K, 4192 kPa, transient hot wire)?
A: 0.03871 ± 0.00092 W/m/K

Q: What about the thermal conductivity (453.73 K, 46962 kPa, transient hot wire) of the same compound?
A: 0.06254 ± 0.0016 W/m/K

Q: What about the thermal conductivity (453.73 K, 46969 kPa, transient hot wire) of the same compound?
A: 0.06263 ± 0.0016 W/m/K

Q: And the thermal conductivity (453.74 K, 525 kPa, hot wire)?
A: 0.0244 ± 0.0011 W/m/K

Q: And the thermal conductivity (453.75 K, 524 kPa, hot wire)?
A: 0.02432 ± 0.0011 W/m/K

Q: And the thermal conductivity (453.75 K, 1718 kPa, transient hot wire)?
A: 0.02601 ± 0.0016 W/m/K

Q: And the thermal conductivity (453.76 K, 1718 kPa, transient hot wire)?
A: 0.02605 ± 0.0016 W/m/K

Q: And the thermal conductivity (453.77 K, 20261 kPa, transient hot wire)?
A: 0.05121 ± 0.0012 W/m/K

Q: What about the thermal conductivity (453.77 K, 20262 kPa, transient hot wire) of the same compound?
A: 0.0513 ± 0.0012 W/m/K

Q: And the thermal conductivity (453.78 K, 48 kPa, hot wire)?
A: 0.02241 ± 0.001 W/m/K

Q: And the thermal conductivity (453.78 K, 31246 kPa, transient hot wire)?
A: 0.0566 ± 0.0014 W/m/K

Q: And the thermal conductivity (453.79 K, 31248 kPa, transient hot wire)?
A: 0.05653 ± 0.0014 W/m/K

Q: And the thermal conductivity (453.8 K, 48 kPa, hot wire)?
A: 0.02228 ± 0.001 W/m/K

Q: And the thermal conductivity (453.8 K, 344 kPa, hot wire)?
A: 0.0233 ± 0.0011 W/m/K

Q: And the thermal conductivity (453.8 K, 347 kPa, hot wire)?
A: 0.02342 ± 0.0011 W/m/K

Q: And the thermal conductivity (453.8 K, 5666 kPa, transient hot wire)?
A: 0.0408 ± 0.00097 W/m/K

Q: And the thermal conductivity (453.8 K, 8477 kPa, transient hot wire)?
A: 0.04345 ± 0.001 W/m/K

Q: What about the thermal conductivity (453.81 K, 1718 kPa, transient hot wire) of the same compound?
A: 0.02631 ± 0.00087 W/m/K

Q: What about the thermal conductivity (453.81 K, 47035 kPa, transient hot wire) of the same compound?
A: 0.06264 ± 0.0016 W/m/K

Q: And the thermal conductivity (453.82 K, 8478 kPa, transient hot wire)?
A: 0.0434 ± 0.001 W/m/K

Q: What about the thermal conductivity (453.84 K, 171 kPa, hot wire) of the same compound?
A: 0.02268 ± 0.0011 W/m/K

Q: What about the thermal conductivity (453.84 K, 524 kPa, hot wire) of the same compound?
A: 0.02443 ± 0.0011 W/m/K

Q: And the thermal conductivity (453.84 K, 13123 kPa, transient hot wire)?
A: 0.04696 ± 0.0011 W/m/K

Q: What about the thermal conductivity (453.85 K, 170 kPa, hot wire) of the same compound?
A: 0.02247 ± 0.0011 W/m/K

Q: And the thermal conductivity (453.85 K, 13121 kPa, transient hot wire)?
A: 0.04695 ± 0.0011 W/m/K

Q: And the thermal conductivity (453.86 K, 523 kPa, hot wire)?
A: 0.02411 ± 0.0011 W/m/K

Q: What about the thermal conductivity (453.87 K, 5638 kPa, transient hot wire) of the same compound?
A: 0.0407 ± 0.00097 W/m/K

Q: And the thermal conductivity (453.87 K, 46957 kPa, transient hot wire)?
A: 0.06253 ± 0.0016 W/m/K

Q: And the thermal conductivity (453.88 K, 47 kPa, hot wire)?
A: 0.02246 ± 0.001 W/m/K and 0.02258 ± 0.0011 W/m/K

Q: What about the thermal conductivity (453.88 K, 1718 kPa, transient hot wire) of the same compound?
A: 0.02616 ± 0.0016 W/m/K and 0.02618 ± 0.0016 W/m/K

Q: And the thermal conductivity (453.88 K, 46954 kPa, transient hot wire)?
A: 0.06253 ± 0.0016 W/m/K

Q: And the thermal conductivity (453.9 K, 340 kPa, hot wire)?
A: 0.02338 ± 0.0011 W/m/K

Q: And the thermal conductivity (453.9 K, 342 kPa, hot wire)?
A: 0.02344 ± 0.0011 W/m/K

Q: What about the thermal conductivity (453.91 K, 1365 kPa, transient hot wire) of the same compound?
A: 0.02445 ± 0.00081 W/m/K

Q: What about the thermal conductivity (453.92 K, 1364 kPa, transient hot wire) of the same compound?
A: 0.02439 ± 0.00081 W/m/K

Q: What about the thermal conductivity (453.93 K, 20259 kPa, transient hot wire) of the same compound?
A: 0.05122 ± 0.0012 W/m/K

Q: And the thermal conductivity (453.94 K, 524 kPa, hot wire)?
A: 0.02452 ± 0.0011 W/m/K

Q: What about the thermal conductivity (453.94 K, 1718 kPa, transient hot wire) of the same compound?
A: 0.02654 ± 0.0016 W/m/K

Q: What about the thermal conductivity (453.94 K, 1719 kPa, transient hot wire) of the same compound?
A: 0.02663 ± 0.0016 W/m/K

Q: And the thermal conductivity (453.94 K, 20259 kPa, transient hot wire)?
A: 0.05128 ± 0.0012 W/m/K

Q: What about the thermal conductivity (453.94 K, 31248 kPa, transient hot wire) of the same compound?
A: 0.05655 ± 0.0014 W/m/K

Q: And the thermal conductivity (453.95 K, 170 kPa, hot wire)?
A: 0.0227 ± 0.0011 W/m/K and 0.02256 ± 0.0011 W/m/K

Q: What about the thermal conductivity (453.95 K, 524 kPa, hot wire) of the same compound?
A: 0.02446 ± 0.0011 W/m/K

Q: And the thermal conductivity (453.95 K, 31244 kPa, transient hot wire)?
A: 0.05645 ± 0.0014 W/m/K

Q: And the thermal conductivity (453.95 K, 47020 kPa, transient hot wire)?
A: 0.06258 ± 0.0016 W/m/K

Q: What about the thermal conductivity (453.96 K, 47012 kPa, transient hot wire) of the same compound?
A: 0.06261 ± 0.0016 W/m/K

Q: And the thermal conductivity (453.98 K, 48 kPa, hot wire)?
A: 0.02243 ± 0.001 W/m/K and 0.02253 ± 0.0011 W/m/K

Q: What about the thermal conductivity (454.01 K, 338 kPa, hot wire) of the same compound?
A: 0.02346 ± 0.0012 W/m/K

Q: What about the thermal conductivity (454.02 K, 339 kPa, hot wire) of the same compound?
A: 0.02333 ± 0.0011 W/m/K

Q: And the thermal conductivity (454.02 K, 13121 kPa, transient hot wire)?
A: 0.047 ± 0.0011 W/m/K and 0.04696 ± 0.0011 W/m/K

Q: And the thermal conductivity (454.02 K, 46938 kPa, transient hot wire)?
A: 0.06262 ± 0.0016 W/m/K

Q: What about the thermal conductivity (454.02 K, 46945 kPa, transient hot wire) of the same compound?
A: 0.06264 ± 0.0016 W/m/K

Q: What about the thermal conductivity (454.06 K, 523 kPa, hot wire) of the same compound?
A: 0.02445 ± 0.0011 W/m/K

Q: And the thermal conductivity (454.07 K, 170 kPa, hot wire)?
A: 0.02273 ± 0.0011 W/m/K

Q: What about the thermal conductivity (454.07 K, 522 kPa, hot wire) of the same compound?
A: 0.02433 ± 0.0011 W/m/K

Q: What about the thermal conductivity (454.07 K, 1364 kPa, transient hot wire) of the same compound?
A: 0.02449 ± 0.00081 W/m/K

Q: And the thermal conductivity (454.07 K, 1365 kPa, transient hot wire)?
A: 0.02446 ± 0.00081 W/m/K

Q: And the thermal conductivity (454.07 K, 1718 kPa, transient hot wire)?
A: 0.02688 ± 0.0017 W/m/K and 0.02682 ± 0.0016 W/m/K

Q: And the thermal conductivity (454.08 K, 169 kPa, hot wire)?
A: 0.02266 ± 0.0011 W/m/K

Q: And the thermal conductivity (454.09 K, 48 kPa, hot wire)?
A: 0.02257 ± 0.0011 W/m/K

Q: What about the thermal conductivity (454.1 K, 48 kPa, hot wire) of the same compound?
A: 0.0225 ± 0.0011 W/m/K

Q: And the thermal conductivity (454.1 K, 20256 kPa, transient hot wire)?
A: 0.0513 ± 0.0012 W/m/K and 0.05118 ± 0.0012 W/m/K

Q: What about the thermal conductivity (454.1 K, 31241 kPa, transient hot wire) of the same compound?
A: 0.05644 ± 0.0014 W/m/K

Q: And the thermal conductivity (454.1 K, 31244 kPa, transient hot wire)?
A: 0.05644 ± 0.0014 W/m/K

Q: What about the thermal conductivity (454.11 K, 47006 kPa, transient hot wire) of the same compound?
A: 0.06269 ± 0.0016 W/m/K

Q: And the thermal conductivity (454.13 K, 337 kPa, hot wire)?
A: 0.02342 ± 0.0012 W/m/K

Q: And the thermal conductivity (454.13 K, 338 kPa, hot wire)?
A: 0.0234 ± 0.0011 W/m/K
